Experiments:
human UDG = system: human UDG; set-up: method as in PMID 8391260; settings: purified human HeLa UDG; cited from earlier work
recombinant PfUDG = recombinant PfUDG (Plasmodium falciparum, UniProt Q8ILU6, P157T); test: Inhibition of recombinant PfUDG activity (32P-labelled oligo-U glycosylase assay); assay type: biochemical; settings: for Inhibitory effect of UGI on recombinant PfUDG: 1:1 molar ratio of PfUDG and UGI
Experimental: (§1) The UDG activity assay (20 μl) consisted of standard reaction buffer containing 20 mM Tris–HCl pH 8.0, 1 mM DTT, 1 mM EDTA, 50 mM NaCl, 100 μg/ml BSA, 10 pmol ^32P-labelled oligo-U, and 20 ng of PfUDG at 37°C for 20 min. The glycosylase activity was stopped by heating at 100°C for 1 min, the resulting apurinic/apyrimidinic site (AP site) was incised by hot alkaline treatment with 0.1 M NaOH (final concentration) at 95°C for 10 min, and the reaction was neutralized with 0.1 M HCl (final concentration). The AP lyase activity assay of PfUDG was examined under the same condition as UDG activity assay except without hot alkaline treatment. Reaction products were analysed on 8 M urea-16% denaturing PAGE and exposed to X-ray film for autoradiography for visualization. The radioactive intensity of sliced substrate and product bands from the gel were measured in a 1450 MicroBeta® Trilux Liquid Scintillation Counter (Perkin Elmer) as counts per minute (cpm). The amounts of substrate and product (pmol) were determined from radioactive intensity. One unit of activity is defined as the amount of PfUDG required for releasing 1 pmol of uracil in 1 min at 37°C in standard reaction buffer (20 mM Tris–HCl pH 8.0, 50 mM NaCl, 1 mM EDTA, 1 mM DTT, and 100 μg/ml BSA) with ^32P-labelled single stranded oligo-U substrate.
Two types of UDG inhibitors, UGI protein and synthetic uracil-derived compounds, were tested for their inhibitory effects on PfUDG. UGI protein of B. subtilis bacteriophage PBS1 (New England BioLabs) was used against native and recombinant PfUDG with 10 pmol ^32P-labelled single stranded oligo-U in the standard reaction buffer at 37°C for 20 min. The synthetic uracil-derived compounds were also used at various concentrations (5–640 μM) with 20 ng of recombinant PfUDG and 10 pmol ^32P-labelled single stranded oligo-U in the standard reaction buffer at 37°C for 20 min. The same 0.4% (v/v final concentration) of DMSO was used as solvent control to determine its effects on enzyme activity. The dose–response curves of relative activities of PfUDG and various compound concentrations were generated, and half-maximal inhibitory concentration (IC50), the concentration of compound to inhibit enzyme activity by 50%, was obtained using SigmaPlot 12.0.

P. falciparum K1 strain = test: Inhibition of parasite growth in vitro, SYBR Green I based assay; assay type: cell-based; settings: Plasmodium falciparum, synchronized ring stage K1 strain
Experimental: The synchronized ring stage of P. falciparum K1 strain was prepared from mixed stage parasite culture by 5% D-sorbitol treatment. The ring stage parasite was then mixed with culture medium containing RPMI 1640 supplemented with 10% human serum. Various concentrations of each uracil-derived compound were tested at 2-fold serial dilutions in triplicate. Their inhibitory effects on parasite growth were determined by SYBR Green I based assay. The fluorescent intensity was measured by Varioskan Flash Multimode Reader (Thermo Scientific, Vantaa, Finland) with excitation and emission wavelengths of 485 and 535 nm, respectively. The percentage of fluorescent intensity at each compound concentration compared with negative control was indicative of the parasite growth. The dose–response curves of fluorescent intensity and compound concentrations were generated, and IC50, the concentration of compound to inhibit parasite growth by 50%, was obtained using SigmaPlot 12.0.

[1] = Cytotoxicity test, MTT colorimetric assay; assay type: cell-based; settings: human, HepG2 cells
Experimental: The uracil-derived compounds showing inhibitory effects on PfUDG were assayed for cytotoxicity to human hepatocyte carcinoma cell line ATCC HB 8665 (HepG2) by in vitro cytotoxicity test. The methylthiazol tetrazolium (MTT)-dye based colorimetric microtitration assay was used for detecting cell survival based on the metabolism of tetrazolium to formazan by viable cells. The OD of formazan was measured by a Molecular Devices Microplate Reader (Molecular Devices, CA, USA) at a wavelength of 570 nm. The OD570 represented the cell survival, and the percentage of cell survival at each compound concentration was determined by comparing with the OD570 of negative control lacking compounds. The dose–response curves of % cell survival, and compound concentrations and IC50 were obtained. IC50 representing the concentration of compounds providing 50% cell survival indicated the cytotoxicity of compounds.

HSV-1 UDG = system: HSV-1 UDG; set-up: method as in PMID 8391260; settings: HSV-1 UDG purified from HSV-1-infected HeLa cells; cited from earlier work
native PfUDG = test: Inhibition of native PfUDG activity by UGI (32P-labelled oligo-U glycosylase assay); assay type: biochemical, Plasmodium falciparum; settings: 1:1 molar ratio of PfUDG and UGI
Experimental: as §1, with “substrate. […]” for “substrate.”

[2] = listed as uracil glycosylase inhibitor protein

Chain of recombinant PfUDG (Q8ILU6 whole entry P157T): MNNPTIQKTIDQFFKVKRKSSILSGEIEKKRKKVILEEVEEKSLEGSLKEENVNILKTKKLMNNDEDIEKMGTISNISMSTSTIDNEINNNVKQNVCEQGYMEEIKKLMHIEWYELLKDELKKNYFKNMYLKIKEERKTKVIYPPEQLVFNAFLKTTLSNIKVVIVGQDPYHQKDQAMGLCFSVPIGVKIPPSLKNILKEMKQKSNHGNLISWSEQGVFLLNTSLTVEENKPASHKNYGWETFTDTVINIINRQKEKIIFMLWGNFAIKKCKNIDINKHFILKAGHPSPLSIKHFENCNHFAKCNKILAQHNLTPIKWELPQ

For `CCCCCCCCc1ccc(Nc2cc(=O)[nH]c(=O)[nH]2)cc1` [6-(4-n-octylanilino)uracil, 6-(4-n-Octylanilino)uracil], the IC50 (human UDG) is listed as > 300 µM.

Molecule `O=c1cc(NNc2ccccc2)[nH]c(=O)[nH]1` [compound 2, 6-(Phenylhydrazino)uracil] has an IC50 (recombinant PfUDG) of 77.5 µM, an IC50 (P. falciparum K1 strain) of 12.8 µM and an IC50 [1] of 27.5 ± 4.58 µM.

In the case of `CCCCCCCc1ccc(Nc2cc(=O)[nH]c(=O)[nH]2)cc1` [compound 3, 6-(p-n-Heptylanilino)uracil], the IC50 (recombinant PfUDG) is given as > 400 µM, the IC50 (P. falciparum K1 strain) is given as 5 µM and the IC50 (HSV-1 UDG) is given as 20 µM.

In the case of `Cc1ccc(Nc2cc(=O)[nH]c(=O)[nH]2)cc1` [compound 4, 6-(4-Methylanilino)uracil], the IC50 (recombinant PfUDG) is reported as > 400 µM and the IC50 (P. falciparum K1 strain) is reported as 7.1 µM.

In the case of `CCCc1ccc(Nc2cc(=O)[nH]c(=O)[nH]2)cc1` [compound 5, 6-(p-n-Propylanilino)uracil], the IC50 (recombinant PfUDG) is reported as > 400 µM and the IC50 (P. falciparum K1 strain) is reported as 7.9 µM.

With `O=c1cc[nH]c(=O)[nH]1` [compound 6, Uracil] the IC50 (recombinant PfUDG) was > 400 µM and the IC50 (P. falciparum K1 strain) was 10 µM.

For `CCCCc1ccc(Nc2cc(=O)[nH]c(=O)[nH]2)cc1` [compound 7, 6-(p-n-Butylanilino)uracil], the IC50 (recombinant PfUDG) is given as > 400 µM, the IC50 (P. falciparum K1 strain) is given as 10 µM and the IC50 (HSV-1 UDG) is given as 150 µM.

In the case of `CCc1cc(Nc2cc(=O)n(CCCCO)c(=O)[nH]2)ccc1C` [compound 8, 3-(4-Hydroxybutyl)-6-(3-ethyl-4-methylanilino)uracil], the IC50 (recombinant PfUDG) is reported as > 400 µM and the IC50 (P. falciparum K1 strain) is reported as 10.2 µM.

For `CCCCCc1ccc(Nc2cc(=O)[nH]c(=O)[nH]2)cc1` [compound 9, 6-(p-n-Pentylanilino)uracil], the IC50 (recombinant PfUDG) is given as > 400 µM, the IC50 (P. falciparum K1 strain) is given as 10.5 µM and the IC50 (HSV-1 UDG) is given as 30 µM.

In the case of `CC(C)CCc1ccc(Nc2cc(=O)[nH]c(=O)[nH]2)cc1` [compound 10, 6-(p-i-Pentylanilino)uracil], the IC50 (recombinant PfUDG) is given as > 400 µM, the IC50 (P. falciparum K1 strain) is given as 11 µM and the IC50 (HSV-1 UDG) is given as 140 µM.

In the case of `CC(C)c1ccc(Nc2cc(O)nc(O)n2)cc1` [compound 11, 6-(p-i-Propylanilino)uracil], the IC50 (recombinant PfUDG) is reported as > 400 µM and the IC50 (P. falciparum K1 strain) is reported as 12.6 µM.

For `CC(C)Cc1ccc(Nc2cc(=O)[nH]c(=O)[nH]2)cc1` [compound 12, 6-(p-i-Butylanilino)uracil], the IC50 (recombinant PfUDG) was > 400 µM and the IC50 (P. falciparum K1 strain) was 16.5 µM.

B1: UGI: UGI protein of B. subtilis bacteriophage PBS1 (New England BioLabs), a well-known UDG inhibitor (protein, UniProt P14739 1-84, looked up)
Uracil-DNA glycosylase …: MTNLSDIIEKETGKQLVIQESILMLPEEVEEVIGNKPESDILVHTAYDESTDENVMLLTSDAPEYKPWALVIQDSNGENKIKML
In the case of B1, the “Inhibitory effect of UGI on recombinant PfUDG” value (recombinant PfUDG) is reported as “completely inhibited”, the “Inhibitory effect of UGI on recombinant PfUDG” value (recombinant PfUDG; [2]) is reported as “inhibited” and the “Inhibitory effect of UGI on native PfUDG” value (native PfUDG) is reported as “completely inhibited”. For the same molecule, the “Inhibitory effect of UGI on native PfUDG” value (native PfUDG; [2]) was “inhibited”.

— article PMC3997752, “Molecular characterization of Plasmodium falciparum uracil-DNA glycosylase and its potential as a new anti-malarial drug target” (Malaria Journal, 2014)
